Laboratory results reported in PubChem BioAssay AID1963849 (Molecular Pharmacology Branch, DTP, NCI, 2024).

Tested on: 299254-011-R-J1-PDC complex spheroid viability
Assay: Anticancer human tumor 299254-011-R-J1-PDC patient-derived melanoma cell line growth inhibition [POLQ]
Conditions: for IC50: curve of first compound; for viability, T/C: stronger effect = lower value; active = viability on the fitted dose curve at most 10% of control; inactive = the rest
In short: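 Growth inhibition in 3D: complex spheroids (tumor PDC, HUVEC, MSC) treated with POLQ inhibitor combinations; where Cmax unknown, highest tested concentration 10 microM, except SN-38 at 1 microM.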

[1] = second compound 0.0316 µM, first compound 0.0316 µM
[2] = second compound 0.0316 µM, first compound 0.1 µM
[3] = second compound 0.0316 µM, first compound 0.316 µM
[4] = second compound 0.0316 µM, first compound 1 µM
[5] = second compound 0.0316 µM, first compound 3.16 µM
[6] = second compound 0.0316 µM, first compound 10 µM
[7] = second compound 0.1 µM, first compound 0.0316 µM
[8] = second compound 0.1 µM, first compound 0.1 µM
[9] = second compound 0.1 µM, first compound 0.316 µM
[10] = second compound 0.1 µM, first compound 1 µM
[11] = second compound 0.1 µM, first compound 3.16 µM
[12] = second compound 0.1 µM, first compound 10 µM
[13] = second compound 0.316 µM, first compound 0.0316 µM
[14] = second compound 0.316 µM, first compound 0.1 µM
[15] = second compound 0.316 µM, first compound 0.316 µM
[16] = second compound 0.316 µM, first compound 1 µM
[17] = second compound 0.316 µM, first compound 3.16 µM
[18] = second compound 0.316 µM, first compound 10 µM
[19] = second compound 1 µM, first compound 0.0316 µM
[20] = second compound 1 µM, first compound 0.1 µM
[21] = second compound 1 µM, first compound 0.316 µM
[22] = second compound 1 µM, first compound 1 µM
[23] = second compound 1 µM, first compound 3.16 µM
[24] = second compound 1 µM, first compound 10 µM
[25] = second compound 3.16 µM, first compound 0.0316 µM
[26] = second compound 3.16 µM, first compound 0.1 µM
[27] = second compound 3.16 µM, first compound 0.316 µM
[28] = second compound 3.16 µM, first compound 1 µM
[29] = second compound 3.16 µM, first compound 3.16 µM
[30] = second compound 3.16 µM, first compound 10 µM
[31] = second compound 10 µM, first compound 0.0316 µM
[32] = second compound 10 µM, first compound 0.1 µM
[33] = second compound 10 µM, first compound 0.316 µM
[34] = second compound 10 µM, first compound 1 µM
[35] = second compound 10 µM, first compound 3.16 µM
[36] = second compound 10 µM, first compound 10 µM
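Also: spheroids exposed to drugs for one week before measurement.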
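For viability, T/C in this document: percent viability relative to DMSO vehicle control taken as 100%.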

CCc1cc2c(N3CCc4c(cc(Cn5ccnc5)cc4-c4cn(C)nc4C(F)(F)F)C3=O)cc(C)nc2c(OC)n1 + Cc1cccc(N(C)C(=O)C2C(O)CCN2c2nc(C)cc(C(F)(F)F)c2C#N)c1
> 10 µM: IC50 (second compound 0.0316 µM) | IC50 (second compound 0.1 µM) | IC50 (second compound 0.316 µM) | IC50 (second compound 1 µM) | IC50 (second compound 3.16 µM) | IC50 (second compound 10 µM)
inactive: viability, T/C [1] 96.3% | viability, T/C [2] 92.5% | viability, T/C [3] 96.6% | viability, T/C [4] 104% | viability, T/C [5] 94.8% | viability, T/C [6] 61.3% | viability, T/C [7] 109% | viability, T/C [8] 109% | viability, T/C [9] 90.3% | viability, T/C [10] 94.8% | viability, T/C [11] 80.9% | viability, T/C [12] 71.3% | viability, T/C [13] 108% | viability, T/C [14] 115% | viability, T/C [15] 121% | viability, T/C [16] 106% | viability, T/C [17] 87.9% | viability, T/C [18] 65.3% | viability, T/C [19] 105% | viability, T/C [20] 100% | viability, T/C [21] 99.7% | viability, T/C [22] 90.2% | viability, T/C [23] 88.3% | viability, T/C [24] 58.5% | viability, T/C [25] 117% | viability, T/C [26] 98.3% | viability, T/C [27] 95.3% | viability, T/C [28] 84.5% | viability, T/C [29] 80.2% | viability, T/C [30] 70.2% | viability, T/C [31] 109% | viability, T/C [32] 117% | viability, T/C [33] 106% | viability, T/C [34] 82.2% | viability, T/C [35] 77.8% | viability, T/C [36] 58.6%

CCc1cc2c(N3CCc4c(cc(Cn5ccnc5)cc4-c4cn(C)nc4C(F)(F)F)C3=O)ccnc2c(OC)n1 + Cc1cccc(N(C)C(=O)C2C(O)CCN2c2nc(C)cc(C(F)(F)F)c2C#N)c1
inactive: viability, T/C [1] 97.6% | viability, T/C [2] 119% | viability, T/C [3] 98.9% | viability, T/C [4] 106% | viability, T/C [5] 109% | viability, T/C [6] 80.4% | viability, T/C [7] 98.7% | viability, T/C [8] 102% | viability, T/C [9] 99.7% | viability, T/C [10] 99.4% | viability, T/C [11] 99.1% | viability, T/C [12] 86.1% | viability, T/C [13] 98.5% | viability, T/C [14] 91.2% | viability, T/C [15] 116% | viability, T/C [16] 112% | viability, T/C [17] 84.2% | viability, T/C [18] 72.8% | viability, T/C [19] 110% | viability, T/C [20] 96.9% | viability, T/C [21] 113% | viability, T/C [22] 107% | viability, T/C [23] 91% | viability, T/C [24] 86% | viability, T/C [25] 106% | viability, T/C [26] 96.9% | viability, T/C [27] 101% | viability, T/C [28] 105% | viability, T/C [29] 95.5% | viability, T/C [30] 76.4% | viability, T/C [31] 94% | viability, T/C [32] 112% | viability, T/C [33] 105% | viability, T/C [34] 82.1% | viability, T/C [35] 75.7% | viability, T/C [36] 79%
> 10 µM: IC50 (second compound 0.0316 µM) | IC50 (second compound 0.1 µM) | IC50 (second compound 0.316 µM) | IC50 (second compound 1 µM) | IC50 (second compound 3.16 µM) | IC50 (second compound 10 µM)

COc1ccc([C@@H](O)c2cc(-c3ncnc4cc(N5CCOCC5)ccc34)c(F)cc2Cl)nn1 + Cc1cccc(N(C)C(=O)C2C(O)CCN2c2nc(C)cc(C(F)(F)F)c2C#N)c1
8.8 µM: IC50 (second compound 1 µM)
6.8 µM: IC50 (second compound 3.16 µM)
8.36 µM: IC50 (second compound 0.316 µM)
inactive: viability, T/C [1] 105% | viability, T/C [2] 102% | viability, T/C [3] 96.7% | viability, T/C [4] 99% | viability, T/C [5] 87.9% | viability, T/C [6] 49.6% | viability, T/C [7] 90.1% | viability, T/C [8] 89.2% | viability, T/C [9] 112% | viability, T/C [10] 92.5% | viability, T/C [11] 95.9% | viability, T/C [12] 53.4% | viability, T/C [13] 101% | viability, T/C [14] 108% | viability, T/C [15] 97.9% | viability, T/C [16] 86.2% | viability, T/C [17] 82.1% | viability, T/C [18] 43.6% | viability, T/C [19] 108% | viability, T/C [20] 97.6% | viability, T/C [21] 104% | viability, T/C [22] 111% | viability, T/C [23] 82.6% | viability, T/C [24] 46% | viability, T/C [25] 102% | viability, T/C [26] 102% | viability, T/C [27] 100% | viability, T/C [28] 90.2% | viability, T/C [29] 77.8% | viability, T/C [30] 36.5% | viability, T/C [31] 94.6% | viability, T/C [32] 82.8% | viability, T/C [33] 109% | viability, T/C [34] 88.5% | viability, T/C [35] 66% | viability, T/C [36] 35.3%
> 10 µM: IC50 (second compound 0.0316 µM) | IC50 (second compound 0.1 µM)
5.75 µM: IC50 (second compound 10 µM)

O=C(Nc1ccc(O)c(NS(=O)(=O)c2ccc(F)cc2)c1)c1ccc(-c2ccccc2)cc1 + Cc1cccc(N(C)C(=O)C2C(O)CCN2c2nc(C)cc(C(F)(F)F)c2C#N)c1
inactive: viability, T/C [1] 102% | viability, T/C [2] 99.2% | viability, T/C [3] 92.7% | viability, T/C [4] 104% | viability, T/C [5] 99.3% | viability, T/C [6] 54.8% | viability, T/C [7] 105% | viability, T/C [8] 107% | viability, T/C [9] 98% | viability, T/C [10] 107% | viability, T/C [11] 96.3% | viability, T/C [12] 47.3% | viability, T/C [13] 102% | viability, T/C [14] 115% | viability, T/C [15] 98.2% | viability, T/C [16] 123% | viability, T/C [17] 93.7% | viability, T/C [18] 56.2% | viability, T/C [19] 106% | viability, T/C [20] 111% | viability, T/C [21] 109% | viability, T/C [22] 104% | viability, T/C [23] 90.7% | viability, T/C [24] 53% | viability, T/C [25] 108% | viability, T/C [26] 103% | viability, T/C [27] 101% | viability, T/C [28] 94.8% | viability, T/C [29] 100% | viability, T/C [30] 48.9% | viability, T/C [31] 98.7% | viability, T/C [32] 98% | viability, T/C [33] 93.6% | viability, T/C [34] 110% | viability, T/C [35] 83.4% | viability, T/C [36] 45.2%
> 10 µM: IC50 (second compound 0.0316 µM) | IC50 (second compound 0.316 µM) | IC50 (second compound 1 µM)
9.75 µM: IC50 (second compound 3.16 µM)
9.45 µM: IC50 (second compound 0.1 µM)
8.66 µM: IC50 (second compound 10 µM)
